Measured values published in patent US6486128B1, “Method of using emamectin to treat fish parasites” (Schering-Plough Veterinary Corporation, priority 1999, dated 2002).

Columns and labels:
[1] = Daily observation of fish for behavior, adverse drug reactions and mortalities (three studies); assay type: in vivo, Atlantic salmon, Salmo salar L.; conditions: at the dosage levels and dosage schedule of the invention
Method: Fish were held in replicate groups in plastic fiber tanks, each with a volume of 0.54 m^3. Each tank was supplied with natural sea water at ambient temperature (7-14° C.) and salinity (30-35 ppt), at flow rates of approximately 18 l. min^−1. The tanks were fitted with mesh screens over the water outlet to retain uneaten fish pellets. Fish were observed daily for behavior and adverse drug reactions. Fish mortalities and the occurrence of gross sea lice damage were also recorded.

parasites = experiment: Sustained efficacy after emamectin treatment; assay type: in vivo

4″-deoxy-4″ epimethylaminoavermectin B1 [emamectin]
toxicity to fish populations [1]: not toxic | sustained efficacy after treatment (parasites): 8 to 10 weeks
